Experiment [1] deals with Fibroblast growth factor receptor 2 (Homo sapiens) (UniProt P21802). The experiment in a line: Inhibition of His-tagged human recombinant FGFR2 (403 to 822 residues) expressed in baculovirus using Fluorescein-Poly GT as substrate at 100 nM.
Experiment [2] deals with Serine/threonine-protein kinase B-raf (Homo sapiens) (UniProt P15056). As to the kind of experiment: Inhibition of full length GST-tagged human recombinant BRAF expressed in baculovirus using Fluorescein-MAP2K1 as substrate at 100 nM.
Experiment [3] deals with Epidermal growth factor receptor (Homo sapiens, UniProt P00533). As to the kind of experiment: Inhibition of GST-tagged human recombinant EGFR (668 to1210 residues) expressed in baculovirus using Fluorescein-Poly GT as substrate at 100 nM.
Experiment [4] has as its target Platelet-derived growth factor receptor alpha (Homo sapiens, UniProt P16234). The experiment in a line: Inhibition of full length GST-tagged human recombinant PDGFRalpha expressed in baculovirus using Fluorescein-Poly GT as substrate at 100 nM.
In experiment [5] the target is Proto-oncogene tyrosine-protein kinase Src (Homo sapiens, UniProt P12931). As to the kind of experiment: Inhibition of full length His-tagged human recombinant cSRC expressed in baculovirus using Fluorescein-Poly GT as substrate at 100 nM.
Experiment [6] addresses Vascular endothelial growth factor receptor 2 (Homo sapiens) (UniProt P35968). The experiment in a line: Inhibition of full length His-tagged human recombinant VEGFR2 expressed in baculovirus using Fluorescein-Poly GT as substrate at 100 nM.

From ChEMBL document CHEMBL3808348, “Rational Design, Synthesis, and Biological Evaluation of 7-Azaindole Derivatives as Potent Focused Multi-Targeted Kinase Inhibitors” (J Med Chem, 2016) come the findings set out here.

As a reminder, the inhibition is the drop in the measured response relative to a control, in per cent.

Serine/threonine-protein kinase B-raf (Homo sapiens), sequence (P15056 whole entry, the tested form may be a part): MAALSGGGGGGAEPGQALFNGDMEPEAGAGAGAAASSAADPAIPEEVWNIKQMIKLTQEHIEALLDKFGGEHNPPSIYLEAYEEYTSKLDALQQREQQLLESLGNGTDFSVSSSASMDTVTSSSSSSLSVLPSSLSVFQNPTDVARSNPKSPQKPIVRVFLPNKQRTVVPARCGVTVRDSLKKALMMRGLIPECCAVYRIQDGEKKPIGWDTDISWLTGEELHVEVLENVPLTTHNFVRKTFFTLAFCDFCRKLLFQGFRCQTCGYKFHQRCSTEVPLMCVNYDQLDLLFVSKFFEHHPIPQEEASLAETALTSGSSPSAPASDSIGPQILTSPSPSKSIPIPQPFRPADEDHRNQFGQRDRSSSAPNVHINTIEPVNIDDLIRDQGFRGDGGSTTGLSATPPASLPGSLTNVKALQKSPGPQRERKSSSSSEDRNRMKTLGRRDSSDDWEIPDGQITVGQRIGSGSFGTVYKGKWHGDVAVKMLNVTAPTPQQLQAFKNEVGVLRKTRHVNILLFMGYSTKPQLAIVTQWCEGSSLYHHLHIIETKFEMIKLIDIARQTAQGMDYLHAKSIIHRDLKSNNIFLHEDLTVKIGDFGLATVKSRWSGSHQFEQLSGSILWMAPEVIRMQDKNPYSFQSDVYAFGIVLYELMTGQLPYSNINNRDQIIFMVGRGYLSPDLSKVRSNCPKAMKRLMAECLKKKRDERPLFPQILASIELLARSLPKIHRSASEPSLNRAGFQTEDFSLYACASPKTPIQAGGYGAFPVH
Vascular endothelial growth factor receptor 2 (Homo sapiens), sequence (P35968 whole entry): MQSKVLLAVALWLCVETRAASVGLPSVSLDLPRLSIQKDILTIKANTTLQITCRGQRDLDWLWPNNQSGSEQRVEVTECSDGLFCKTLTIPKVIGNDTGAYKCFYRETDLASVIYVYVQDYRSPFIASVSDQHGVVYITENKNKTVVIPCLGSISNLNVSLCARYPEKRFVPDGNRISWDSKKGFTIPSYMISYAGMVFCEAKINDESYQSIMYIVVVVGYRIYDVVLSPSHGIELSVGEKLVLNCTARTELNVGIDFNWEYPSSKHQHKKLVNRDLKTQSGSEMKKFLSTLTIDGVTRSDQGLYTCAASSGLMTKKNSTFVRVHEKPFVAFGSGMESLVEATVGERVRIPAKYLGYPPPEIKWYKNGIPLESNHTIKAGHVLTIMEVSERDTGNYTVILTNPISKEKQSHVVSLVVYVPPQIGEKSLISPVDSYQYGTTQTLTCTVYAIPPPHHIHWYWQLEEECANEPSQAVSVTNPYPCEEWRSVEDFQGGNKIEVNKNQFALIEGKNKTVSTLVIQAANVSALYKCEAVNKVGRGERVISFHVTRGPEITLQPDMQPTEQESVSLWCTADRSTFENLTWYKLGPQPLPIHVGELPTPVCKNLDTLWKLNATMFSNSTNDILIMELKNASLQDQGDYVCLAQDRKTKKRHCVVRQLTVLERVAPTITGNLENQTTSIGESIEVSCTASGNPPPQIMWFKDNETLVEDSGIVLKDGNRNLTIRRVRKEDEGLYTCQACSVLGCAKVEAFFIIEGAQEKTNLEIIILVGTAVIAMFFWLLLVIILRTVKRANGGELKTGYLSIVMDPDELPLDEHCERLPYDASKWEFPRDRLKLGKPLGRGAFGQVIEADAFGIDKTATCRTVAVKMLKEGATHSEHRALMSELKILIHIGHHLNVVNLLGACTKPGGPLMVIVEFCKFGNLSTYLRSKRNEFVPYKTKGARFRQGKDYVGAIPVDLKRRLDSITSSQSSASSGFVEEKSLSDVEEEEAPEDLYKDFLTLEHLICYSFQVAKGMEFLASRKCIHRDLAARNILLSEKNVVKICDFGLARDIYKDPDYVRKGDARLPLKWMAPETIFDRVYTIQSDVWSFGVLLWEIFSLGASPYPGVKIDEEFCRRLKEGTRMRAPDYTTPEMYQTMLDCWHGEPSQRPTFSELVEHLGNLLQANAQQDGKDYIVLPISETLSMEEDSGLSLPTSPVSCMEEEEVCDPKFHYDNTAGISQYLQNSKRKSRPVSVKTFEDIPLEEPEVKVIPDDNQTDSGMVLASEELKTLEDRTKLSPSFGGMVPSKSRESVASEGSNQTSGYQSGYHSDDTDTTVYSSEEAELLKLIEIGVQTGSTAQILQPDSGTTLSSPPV
Fibroblast growth factor receptor 2 (Homo sapiens), sequence (P21802 22-821 limits assumed): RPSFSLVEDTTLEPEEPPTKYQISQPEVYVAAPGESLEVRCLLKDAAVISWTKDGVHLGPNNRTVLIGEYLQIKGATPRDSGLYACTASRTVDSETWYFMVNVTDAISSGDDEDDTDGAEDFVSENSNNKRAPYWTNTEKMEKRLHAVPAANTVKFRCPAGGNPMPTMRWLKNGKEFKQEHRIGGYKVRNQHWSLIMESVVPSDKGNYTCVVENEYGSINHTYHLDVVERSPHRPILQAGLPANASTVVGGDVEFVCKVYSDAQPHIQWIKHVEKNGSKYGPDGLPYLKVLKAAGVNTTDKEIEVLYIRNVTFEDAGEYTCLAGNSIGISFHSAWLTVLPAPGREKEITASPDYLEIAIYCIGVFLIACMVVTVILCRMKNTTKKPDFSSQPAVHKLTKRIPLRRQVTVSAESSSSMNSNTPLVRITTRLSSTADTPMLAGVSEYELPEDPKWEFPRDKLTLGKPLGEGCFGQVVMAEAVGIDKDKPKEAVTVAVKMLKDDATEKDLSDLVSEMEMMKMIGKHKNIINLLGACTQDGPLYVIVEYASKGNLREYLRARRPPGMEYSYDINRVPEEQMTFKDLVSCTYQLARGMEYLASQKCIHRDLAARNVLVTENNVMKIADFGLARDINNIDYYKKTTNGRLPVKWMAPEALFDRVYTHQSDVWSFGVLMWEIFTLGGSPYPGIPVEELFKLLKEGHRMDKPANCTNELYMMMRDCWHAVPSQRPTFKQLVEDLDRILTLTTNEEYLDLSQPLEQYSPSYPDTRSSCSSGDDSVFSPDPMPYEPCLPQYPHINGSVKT
Platelet-derived growth factor receptor alpha, sequence (P16234 whole entry): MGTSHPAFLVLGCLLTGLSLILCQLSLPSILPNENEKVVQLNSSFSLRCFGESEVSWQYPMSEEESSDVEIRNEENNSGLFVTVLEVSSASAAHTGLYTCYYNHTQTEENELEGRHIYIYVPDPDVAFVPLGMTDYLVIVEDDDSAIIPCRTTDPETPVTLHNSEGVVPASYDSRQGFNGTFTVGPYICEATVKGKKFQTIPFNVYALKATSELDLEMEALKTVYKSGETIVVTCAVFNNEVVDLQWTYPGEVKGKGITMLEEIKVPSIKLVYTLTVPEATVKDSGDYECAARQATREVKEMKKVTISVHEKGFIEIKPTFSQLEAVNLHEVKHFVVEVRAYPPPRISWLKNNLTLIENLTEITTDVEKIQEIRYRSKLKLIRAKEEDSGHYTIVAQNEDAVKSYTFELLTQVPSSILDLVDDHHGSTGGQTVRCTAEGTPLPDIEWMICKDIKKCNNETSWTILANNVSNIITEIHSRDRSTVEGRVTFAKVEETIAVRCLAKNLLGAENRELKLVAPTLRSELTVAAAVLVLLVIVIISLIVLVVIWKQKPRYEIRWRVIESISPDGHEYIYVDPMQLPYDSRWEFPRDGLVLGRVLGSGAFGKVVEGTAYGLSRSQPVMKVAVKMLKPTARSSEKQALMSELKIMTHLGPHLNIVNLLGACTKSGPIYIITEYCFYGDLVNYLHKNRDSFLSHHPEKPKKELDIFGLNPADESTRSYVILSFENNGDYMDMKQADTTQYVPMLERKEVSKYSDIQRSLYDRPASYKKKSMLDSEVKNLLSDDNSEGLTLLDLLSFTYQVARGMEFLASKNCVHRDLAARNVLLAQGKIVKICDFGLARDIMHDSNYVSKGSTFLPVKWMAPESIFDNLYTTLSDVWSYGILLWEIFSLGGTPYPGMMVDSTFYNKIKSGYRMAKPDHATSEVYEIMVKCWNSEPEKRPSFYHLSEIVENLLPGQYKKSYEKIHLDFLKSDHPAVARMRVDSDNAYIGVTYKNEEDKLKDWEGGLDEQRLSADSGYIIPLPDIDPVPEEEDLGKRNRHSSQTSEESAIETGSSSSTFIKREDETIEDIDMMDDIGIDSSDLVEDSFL
Proto-oncogene tyrosine-protein kinase Src, sequence (P12931 2-536 limits assumed): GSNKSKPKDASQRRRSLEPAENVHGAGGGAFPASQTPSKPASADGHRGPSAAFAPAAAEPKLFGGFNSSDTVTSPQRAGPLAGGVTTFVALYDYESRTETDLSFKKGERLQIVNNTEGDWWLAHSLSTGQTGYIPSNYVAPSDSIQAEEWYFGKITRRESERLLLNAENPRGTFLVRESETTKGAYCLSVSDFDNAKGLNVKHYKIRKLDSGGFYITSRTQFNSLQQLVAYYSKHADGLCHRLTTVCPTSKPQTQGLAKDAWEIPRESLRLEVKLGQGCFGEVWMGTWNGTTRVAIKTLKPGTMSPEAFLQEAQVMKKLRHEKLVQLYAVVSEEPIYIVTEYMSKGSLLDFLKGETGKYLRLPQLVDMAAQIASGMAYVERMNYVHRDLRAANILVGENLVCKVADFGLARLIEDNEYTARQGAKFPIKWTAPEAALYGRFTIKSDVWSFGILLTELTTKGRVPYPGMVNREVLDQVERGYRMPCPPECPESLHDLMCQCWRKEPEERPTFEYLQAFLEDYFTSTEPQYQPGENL

`COC(=O)c1cc2cc(NCc3cc(NC(=O)Cc4ccccc4Br)ccc3C)cnc2[nH]1`: the inhibition in experiment [1] was 8%; in experiment [2], 71%; in experiment [3], -1%; in experiment [4], 97%; in experiment [5], 65%; in experiment [6], 41%.
For `COC(=O)c1cc2cc(NCc3cc(NC(=O)c4cccc(OC(F)(F)F)c4)ccc3C)cnc2[nH]1`, the inhibition in experiment [1] was 8%; in experiment [2], 29%; in experiment [3] it was 39%; in experiment [4], 66%; in experiment [5] it was 105%; in experiment [6] it was 40%.
For the compound `COC(=O)c1cc2cc(NCc3cc(NC(=O)c4cc[nH]c4)ccc3C)cnc2[nH]1`, the inhibition in experiment [1] turned out to be 4%; in experiment [2] it was 51%; in experiment [3], 15%; in experiment [4] it was 71%; in experiment [5], 11%; in experiment [6], 37%.
For `COC(=O)c1cc2cc(NCc3cc(NC(=O)c4ccc(C)c(C(F)(F)F)c4)ccc3C)cnc2[nH]1`, the inhibition in experiment [1] worked out at 10%; in experiment [2], 16%; in experiment [3], 64%; in experiment [4], 47%; in experiment [5] it was 74%; in experiment [6], 19%.
Turning to `COC(=O)c1cc2cc(COc3cc(NC(=O)c4ccc(CN5CCN(C)CC5)cc4)ccc3C)cnc2[nH]1`, the inhibition in experiment [1] was 14%; in experiment [2], 7%; in experiment [3], 81%; in experiment [4], 98%; in experiment [5], 58%; in experiment [6], 67%.
For `Cc1cn(-c2cc(C(=O)Nc3ccc(C)c(CNc4cnc5[nH]c(C(=O)O)cc5c4)c3)cc(C(F)(F)F)c2)cn1`, the inhibition worked out at 49% in experiment [1]; 18% in experiment [2]; 91% in experiment [3]; 63% in experiment [4]; 69% in experiment [5]; 58% in experiment [6].
In the case of `COC(=O)c1cc2cc(NCc3cc(NC(=O)Cc4cccc(C(F)(F)F)c4)ccc3C)cnc2[nH]1`, the inhibition amounted to 6% in experiment [1]; 61% in experiment [2]; 2% in experiment [3]; 87% in experiment [4]; 58% in experiment [5]; 29% in experiment [6].
With `COC(=O)c1cc2cc(/C=C/c3cc(NC(=O)c4ccc(CN5CCN(C)CC5)cc4)ccc3C)cnc2[nH]1`, the inhibition amounted to 2% in experiment [1]; 24% in experiment [2]; 38% in experiment [3]; 88% in experiment [4]; 40% in experiment [5]; 51% in experiment [6].
On to `COC(=O)c1cc2cc(NCc3cc(NC(=O)c4ccccc4OC)ccc3C)cnc2[nH]1`, for which the inhibition in experiment [1] was 12%; in experiment [2] it was 62%; in experiment [3], 16%; in experiment [4] it was 93%; in experiment [5], 78%; in experiment [6], 42%.
As for `Cc1ccc(NC(=O)c2ccc(CN3CCC(N(C)C)C3)c(C(F)(F)F)c2)cc1CNc1cnc2[nH]c(C(=O)O)cc2c1` (stereo not given), the inhibition in experiment [1] was 71%; in experiment [2] it was 33%; in experiment [3], 98%; in experiment [4], 66%; in experiment [5] it was 86%; in experiment [6], 80%.
Take `COC(=O)c1cc2cc(NCc3cc(NC(=O)c4cc(N(C)C)cc(C(F)(F)F)c4)ccc3C)cnc2[nH]1`: the inhibition was 5% in experiment [1]; 14% in experiment [2]; 42% in experiment [3]; 42% in experiment [4]; 108% in experiment [5]; 22% in experiment [6].
For the compound `COC(=O)c1cc2cc(NCc3cc(NC(=O)c4ccc5nn[nH]c5c4)ccc3C)cnc2[nH]1`, the inhibition in experiment [1] came out at 4%; in experiment [2], 69%; in experiment [3], 20%; in experiment [4], 77%; in experiment [5] it was 34%; in experiment [6], 18%.
As to `CC(=O)c1cc2cc(NCc3cc(NC(=O)c4cc(-n5cnc(C)c5)cc(C(F)(F)F)c4)ccc3C)cnc2[nH]1`, the inhibition was determined as 13% in experiment [1]; 55% in experiment [2]; 43% in experiment [3]; 24% in experiment [4]; 59% in experiment [5]; 24% in experiment [6].
For `COC(=O)c1cc2cc(NCc3cc(NC(=O)c4ccc(-c5csc(C)n5)cc4)ccc3C)cnc2[nH]1`, the inhibition was -1% in experiment [1]; 35% in experiment [2]; 66% in experiment [3]; 74% in experiment [4]; 72% in experiment [5]; 13% in experiment [6].
Regarding `COC(=O)c1cc2cc(NCc3cc(NC(=O)c4ccc(O)c(C(F)(F)F)c4)ccc3C)cnc2[nH]1`, the inhibition in experiment [1] came out at 3%; in experiment [2], 37%; in experiment [3], 53%; in experiment [4], 74%; in experiment [5], 66%; in experiment [6], 36%.
Take `COC(=O)c1cc2cc(NCc3cc(NC(=O)c4cccc(C(F)(F)F)c4)ccc3C)cnc2[nH]1`: the inhibition stood at 7% in experiment [1]; 39% in experiment [2]; 63% in experiment [3]; 68% in experiment [4]; 108% in experiment [5]; 38% in experiment [6].
For `COC(=O)c1cc2cc(NCc3cc(NC(=O)c4ccc(Cl)c(C(F)(F)F)c4)ccc3C)cnc2[nH]1`, the inhibition was determined as 5% in experiment [1]; 11% in experiment [2]; 64% in experiment [3]; 71% in experiment [4]; 86% in experiment [5]; 9% in experiment [6].
For the compound `COC(=O)c1cc2cc(/C=C/c3cc(NC(=O)c4ccc(CN5CCC(N(C)C)C5)c(C(F)(F)F)c4)ccc3C)cnc2[nH]1` (stereo not given), the inhibition in experiment [1] came to 38%; in experiment [2], 33%; in experiment [3], 59%; in experiment [4], 68%; in experiment [5], 55%; in experiment [6], 61%.
Consider `COC(=O)c1cc2cc(NCc3cc(NC(=O)c4ccnc(C(F)(F)F)c4)ccc3C)cnc2[nH]1`, for which the inhibition in experiment [1] was -2%; in experiment [2], -7%; in experiment [3] it was 32%; in experiment [4], 42%; in experiment [5], 42%; in experiment [6], 13%.
Regarding `COC(=O)c1cc2cc(NCc3cc(NC(=O)c4cccc(Br)c4)ccc3C)cnc2[nH]1`, the inhibition in experiment [1] was determined as 1%; in experiment [2] it was 63%; in experiment [3] it was 35%; in experiment [4], 87%; in experiment [5], 85%; in experiment [6] it was 59%.
Take `COC(=O)c1cc2cc(CCc3cc(NC(=O)c4ccc(CN5CCN(C)CC5)cc4)ccc3C)cnc2[nH]1`: the inhibition in experiment [1] turned out to be 35%; in experiment [3], 98%; in experiment [4] it was 99%; in experiment [5] it was 91%; in experiment [6], 98%.
